How the values were obtained:
CEM T-ALL cells = assay: Cell cycle kinetics by EdU incorporation (flow cytometry) after release from Palbociclib G1 arrest; type: cell-based, human; settings: for S1 / S2 / S3: synchronous CEM, 12 h after G1 release
Procedure: CEM T-ALL cells were synchronized in G1 phase, and then treated as indicated. Cells were pulsed with EdU 1 h before collection at different time points. Cells were fixed 4% paraformaldehyde, permeabilized with perm/wash reagent (Invitrogen), stained with Azide-AF647 (using click-chemistry, Invitrogen; Click-iT EdU Flow cytometry kit, #C10634) and FxCycle-Violet (Invitrogen), and then analyzed flow cytometry (a detailed description is available in the Supplementary Information).
Cell cycle synchronization. Cells were treated with a CDK4/6 inhibitor, Pablociclib or PD-0332991 (Selleckchem, S1116) for 18 h to synchronize them in the G1 phase. Subsequently, cells were washed twice with PBS containing 2% FBS (Omega Scientific) and released into fresh media. […]
0.5 ml of propidium iodide (Calbiochem, #P3566, 1 µg/mL) solution containing Ribonuclease A and 0.3% Triton-X 100. The samples were protected from light before acquisition by flow cytometry.
Cell cycle kinetics and cell cycle progression by intracellular detection of DNA-incorporated 5-ethynyl-2-deoxyuridine (EdU). CEM T-ALL cells were plated at a density of 0.5 x 10^6 cells/mL. Cells were pulsed with 10 µM EdU (Invitrogen) for 1 h, washed twice with PBS, and released in fresh media containing 5 µM deoxyribonucleosides, with and without drugs. Cells were collected at different time points following release in fresh media, and then fixed with 4% paraformaldehyde and permeabilized using saponin perm/wash reagent (Invitrogen). Cells were then stained with azide-Alexa Fluor 647 by Click reaction according to manufacturer’s protocol (Invitrogen; Click-iT EdU Flow cytometry kit, #C10634). The total DNA content was assessed by staining the samples with FxCycle-Violet (Invitrogen, #F10347) at 1 µg/mL final concentration in PBS containing 2% FBS. To measure the cell cycle progression of a synchronous population of cells, cells were first arrested in the G1 phase following treatment with 1 µM Palbociclib for 18 h, then washed and released in fresh media supplemented with drugs. Before collecting and fixing the cells at different time points, the cells were pulse-labeled with 10 µM EdU for 1 h, and then labeled with azide-Alexa Fluor 647 (Invitrogen; Click-iT EdU Flow cytometry kit). Total DNA content was assessed by staining with FxCycle-Violet (Invitrogen) at 1 µg/mL final concentration in PBS containing 2% FBS. pH2A.X staining. Cells were harvested, fixed and permeabilized with cytofix/cytoperm (BD biosciences, #554722) for 15 min on ice protected from light. Cells were washed, then resuspended in 100 µL 1X Perm/wash buffer (BD Sciences) and incubated for 15 min on ice. The cells were washed, then resuspended in 50 µL with phospho-Histone H2A.X (Ser139) antibody conjugated to fluorochrome FITC (EMD Millipore, #05-636, 1:800 dilutions in perm/wash) for 20 min in the dark at RT. Subsequently, cells were washed and stained with 0.5 mL of DAPI (Invitrogen, #D1306) for DNA content (1 µg/mL in 2% FBS in PBS) before data […]
Measurement of ssDNA levels using the F7-26 monoclonal antibody. Cells were harvested and fixed with ice-cold methanol:PBS (6:1 v/v) for 24h. Staining with F7-26 monoclonal mouse antibody was performed according to manufacturer’s instructions (EMD Millipore, #MAB3299). Fixed cells were resuspended in 250 µL of formamide and heated in a water bath at 75 °C for 10 min. Cells were then allowed to equilibrate to room temperature and then washed with 2 mL of 1% non-fat dry milk in PBS for 15 min. Subsequently, cells were resuspended in 100 µL of anti-ssDNA Mab F7-26 (EMD Millipore, 1:10 in 5% FBS in PBS) and incubated for 45 min at room temperature. Cells were washed with PBS and stained with 100 µL of fluorescence-conjugated

[1] = test system: dasatinib-resistant p185BCR-ABL Arf–/– pre-B-ALL cells; assay: Apoptosis assay, Annexin V and PI staining; type: cell-based, mouse; settings: 350 nM 3-AP, 100 nM VE-822, 1 µM dCKi, 72 h
Procedure: Apoptosis and cell death were assayed using Annexin V-FITC and PI according to manufacturer’s instructions (FITC Annexin V Apoptosis Detection Kit, BD Sciences, #556570). […]
Annexin V staining. Cells were treated with the indicated treatments for 24 or 72 h, then collected and washed twice with 1 mL of FACS buffer (2% FBS in PBS). Induction of apoptosis and cell death were assayed by staining the cells with Annexin V-FITC and PI according to manufacturer’s instructions (FITC Annexin V Apoptosis Detection Kit, BD Sciences, #556570).
FACS analysis. All flow cytometry data were acquired on five-laser LSRII cytometers (BD) for analysis, and analyzed using FlowJo software (Tree Star). […]

[2] = cells harvested from bone marrow of a treated leukemic mouse
[3] = cells prior to inoculation in mice

Structure (SMILES)	percentage of cell population in S2* (late S-phase) (CEM T-ALL cells; 12 h following release from G1 arrest, DI-82 1 µM)	S1 (CEM T-ALL cells; + dNTP (10 µM))	S2 (CEM T-ALL cells; + dNTP (10 µM))	S3 (CEM T-ALL cells; + dNTP (10 µM))	S1 (CEM T-ALL cells; – dNTP)	S2 (CEM T-ALL cells; – dNTP)	S3 (CEM T-ALL cells; – dNTP)	Annexin V+ cells (apoptosis induction) [1, 2]	Annexin V+ cells (apoptosis induction) [1, 3]	fewer cells entered S2 compared to untreated cells (CEM T-ALL cells; 12 h after release from G1 arrest)
COc1ccc(-c2nc([C@@H](C)Sc3nc(N)cc(N)n3)c(C)s2)cc1OCCNS(C)(=O)=O [dCKi]	6.1%	42%	42%	14%	66%	22%	8.4%	11.0%	20.4%	
CNCc1ccc(-c2cc(-c3nc(-c4ccc(S(=O)(=O)C(C)C)cc4)cnc3N)on2)cc1 [VE-822]		43%	52%	1.5%	58%	37%	1%	12.9%	20.7%	16%
NC(=S)N/N=C/c1ncccc1N [3-AP]								22.0%	32.6%	

Source: paper PMC5556071, “ATR inhibition facilitates targeting of leukemia dependence on convergent nucleotide biosynthetic pathways” (Nature Communications, 2017)
